What was measured:
HiBit-BRM fusion protein = target: T1, HiBit-BRM fusion protein (Homo sapiens, UniProt P51531); experiment: HiBiT-BRM cell-based degradation assay (Nano-Glo HiBiT Lytic Detection, 24 h); conditions: stable HeLa cell line expressing HiBiT-BRM, top dose 30 μM
T1 construct: expressed in transfected cells
How it was run: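 HiBiT-tagged BRM levels in a stable HeLa line are measured after one day of compound treatment (up to 30 μM final, duplicate 10-point curves) by adding LgBiT lytic reagent and reading bioluminescence; values are expressed relative to vehicle and a 2 μM degrader control.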

[1] = target: T2, HiBit-BRG1 fusion protein (Homo sapiens, UniProt P51532); experiment: HiBiT-BRG1 cell-based degradation assay (Nano-Glo HiBiT Lytic Detection, 24 h); conditions: stable HeLa cell line expressing HiBit-BRG1 and LgBit, top dose 30 μM, read-out: BRG1 HiBit Degradation Maximum (%)
T2 construct: expressed in transfected cells
How it was run: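 HeLa cells stably expressing HiBiT-BRG1 plus LgBiT were treated with 10-point 3-fold compound dilutions (top 30 μM final) for 24 h. Lytic Nano-Glo HiBiT luminescence was read. % degradation was normalised between DMSO (high control) and 2 μM of a reference BRM/BRG1 degrader (low control).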

T2 sequence (P51532 whole entry, the tested form may be a part): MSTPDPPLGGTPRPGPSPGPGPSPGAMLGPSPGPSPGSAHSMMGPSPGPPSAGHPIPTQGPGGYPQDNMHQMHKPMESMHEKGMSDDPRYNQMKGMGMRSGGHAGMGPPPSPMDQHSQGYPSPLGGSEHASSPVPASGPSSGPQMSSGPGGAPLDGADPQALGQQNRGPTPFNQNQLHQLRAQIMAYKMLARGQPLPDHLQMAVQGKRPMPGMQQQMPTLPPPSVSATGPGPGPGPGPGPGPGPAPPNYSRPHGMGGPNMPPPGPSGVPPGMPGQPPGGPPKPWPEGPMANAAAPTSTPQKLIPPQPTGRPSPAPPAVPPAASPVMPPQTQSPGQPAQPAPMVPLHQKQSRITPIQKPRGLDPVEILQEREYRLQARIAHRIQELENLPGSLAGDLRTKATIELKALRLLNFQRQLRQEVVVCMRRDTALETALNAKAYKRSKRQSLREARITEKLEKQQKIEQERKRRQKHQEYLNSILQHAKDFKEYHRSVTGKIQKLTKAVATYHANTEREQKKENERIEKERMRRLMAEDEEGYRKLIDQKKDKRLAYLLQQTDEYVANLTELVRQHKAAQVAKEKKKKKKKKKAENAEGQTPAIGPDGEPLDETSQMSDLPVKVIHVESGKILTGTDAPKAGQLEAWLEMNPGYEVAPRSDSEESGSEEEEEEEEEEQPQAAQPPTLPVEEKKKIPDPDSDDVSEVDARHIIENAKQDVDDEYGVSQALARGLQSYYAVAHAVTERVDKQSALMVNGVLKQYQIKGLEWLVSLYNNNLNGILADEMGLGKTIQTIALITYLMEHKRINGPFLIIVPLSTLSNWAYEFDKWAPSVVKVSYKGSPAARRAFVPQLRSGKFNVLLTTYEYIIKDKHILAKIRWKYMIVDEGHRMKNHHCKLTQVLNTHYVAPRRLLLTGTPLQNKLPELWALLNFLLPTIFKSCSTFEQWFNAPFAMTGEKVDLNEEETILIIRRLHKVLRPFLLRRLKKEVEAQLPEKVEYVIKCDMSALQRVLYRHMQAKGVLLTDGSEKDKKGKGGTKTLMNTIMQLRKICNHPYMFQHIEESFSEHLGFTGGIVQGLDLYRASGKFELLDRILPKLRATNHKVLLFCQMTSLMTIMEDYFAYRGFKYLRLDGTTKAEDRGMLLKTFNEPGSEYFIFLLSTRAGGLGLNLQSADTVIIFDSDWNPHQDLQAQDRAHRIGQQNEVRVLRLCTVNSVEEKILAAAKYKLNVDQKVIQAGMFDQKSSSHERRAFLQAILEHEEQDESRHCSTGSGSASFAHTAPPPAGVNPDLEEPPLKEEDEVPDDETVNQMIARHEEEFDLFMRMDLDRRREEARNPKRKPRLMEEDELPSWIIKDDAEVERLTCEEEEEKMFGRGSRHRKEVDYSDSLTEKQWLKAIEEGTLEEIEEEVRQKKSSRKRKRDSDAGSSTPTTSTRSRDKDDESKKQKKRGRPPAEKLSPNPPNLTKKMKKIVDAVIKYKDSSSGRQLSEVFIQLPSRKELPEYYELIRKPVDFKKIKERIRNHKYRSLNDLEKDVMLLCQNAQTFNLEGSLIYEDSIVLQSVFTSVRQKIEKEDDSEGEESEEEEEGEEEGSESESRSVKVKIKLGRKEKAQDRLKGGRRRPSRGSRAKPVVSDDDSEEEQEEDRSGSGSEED
T1 sequence (P51531 whole entry, the tested form may be a part): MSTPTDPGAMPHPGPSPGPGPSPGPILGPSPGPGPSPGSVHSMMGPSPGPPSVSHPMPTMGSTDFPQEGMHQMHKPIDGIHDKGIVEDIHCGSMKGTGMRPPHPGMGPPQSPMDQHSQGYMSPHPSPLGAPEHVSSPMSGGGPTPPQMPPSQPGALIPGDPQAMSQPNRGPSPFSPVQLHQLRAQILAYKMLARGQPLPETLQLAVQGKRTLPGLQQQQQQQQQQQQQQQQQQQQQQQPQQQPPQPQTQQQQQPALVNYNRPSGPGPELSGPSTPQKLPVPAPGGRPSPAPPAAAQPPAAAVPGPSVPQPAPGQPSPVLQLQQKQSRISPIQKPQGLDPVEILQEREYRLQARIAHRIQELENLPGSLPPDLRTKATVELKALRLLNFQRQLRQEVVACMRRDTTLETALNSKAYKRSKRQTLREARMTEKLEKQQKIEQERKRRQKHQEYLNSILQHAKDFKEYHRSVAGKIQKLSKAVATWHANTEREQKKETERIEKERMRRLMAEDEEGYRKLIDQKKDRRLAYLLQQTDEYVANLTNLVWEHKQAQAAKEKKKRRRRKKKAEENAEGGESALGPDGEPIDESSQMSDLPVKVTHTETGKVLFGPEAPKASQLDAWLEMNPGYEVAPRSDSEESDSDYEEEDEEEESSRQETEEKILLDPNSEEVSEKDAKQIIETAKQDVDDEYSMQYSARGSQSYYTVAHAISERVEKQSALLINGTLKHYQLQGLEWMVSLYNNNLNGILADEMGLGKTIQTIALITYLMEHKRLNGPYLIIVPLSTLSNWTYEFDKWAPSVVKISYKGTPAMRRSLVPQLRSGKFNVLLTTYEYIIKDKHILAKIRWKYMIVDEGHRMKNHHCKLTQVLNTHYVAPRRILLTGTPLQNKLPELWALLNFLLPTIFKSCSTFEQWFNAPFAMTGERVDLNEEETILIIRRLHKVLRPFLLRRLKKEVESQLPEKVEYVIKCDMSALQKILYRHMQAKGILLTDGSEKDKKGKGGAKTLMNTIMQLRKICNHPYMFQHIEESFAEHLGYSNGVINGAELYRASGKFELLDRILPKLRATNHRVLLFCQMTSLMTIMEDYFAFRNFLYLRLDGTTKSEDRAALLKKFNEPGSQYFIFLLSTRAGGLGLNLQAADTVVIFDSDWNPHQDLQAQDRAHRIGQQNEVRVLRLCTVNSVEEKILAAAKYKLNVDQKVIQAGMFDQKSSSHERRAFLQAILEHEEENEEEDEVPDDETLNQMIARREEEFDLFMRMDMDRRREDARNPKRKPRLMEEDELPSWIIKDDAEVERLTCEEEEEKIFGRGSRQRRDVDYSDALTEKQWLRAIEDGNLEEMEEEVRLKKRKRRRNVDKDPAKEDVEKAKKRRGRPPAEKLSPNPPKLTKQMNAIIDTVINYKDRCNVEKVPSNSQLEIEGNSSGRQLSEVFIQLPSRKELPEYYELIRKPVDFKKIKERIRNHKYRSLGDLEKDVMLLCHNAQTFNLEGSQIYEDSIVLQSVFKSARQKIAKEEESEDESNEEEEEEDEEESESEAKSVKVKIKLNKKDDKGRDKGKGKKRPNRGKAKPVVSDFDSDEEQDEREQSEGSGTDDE

Compound	Dmax [1]	BRM HiBit Degradation Maximum (%) (HiBit-BRM fusion protein)
Nc1nnc(-c2ccccc2O)cc1OCCC12CC(NC(=O)CCOCCOCCNc3ccc4c(c3)C(=O)N(C3CCC(=O)NC3=O)C4=O)(C1)C2 (stereo not shown) [Compound 22, N-[3-(2-[[3-amino-6-(2-hydroxyphenyl)pyridazin-4-yl]oxy]ethyl)bicyclo[1.1.1]pentan-1-yl]-3-[2-(2-[[2-(2,6-dioxopiperidin-3-yl)-1,3-dioxoisoindol-5-yl]amino]ethoxy)ethoxy]propanamide]	< 50%	C (“C” indicates maximum degradation < 50%)
Nc1nnc(-c2ccccc2O)cc1OCC12CC(C(=O)NCCOc3cccc(OCCNc4ccc5c(c4)C(=O)N(C4CCC(=O)NC4=O)C5=O)c3)(C1)C2 (stereo not shown) [Compound 82, 3-(((3-amino-6-(2-hydroxyphenyl)pyridazin-4-yl)oxy)methyl)-N-(2-(3-(2-((2-(2,6-dioxopiperidin-3-yl)-1,3-dioxoisoindolin-5-yl)amino)ethoxy)phenoxy)ethyl)bicyclo[1.1.1]pentane-1-carboxamide]	< 50%	C (“C” indicates maximum degradation < 50%)
Nc1nnc(-c2ccccc2O)cc1OCC12CC(C(=O)NCCOCCOCCNC(=O)COc3ccc4c(c3)C(=O)N(C3CCC(=O)NC3=O)C4=O)(C1)C2 (stereo not shown) [Compound 91, 3-(((3-amino-6-(2-hydroxyphenyl)pyridazin-4-yl)oxy)methyl)-N-(2-(2-(2-(2-((2-(2,6-dioxopiperidin-3-yl)-1,3-dioxoisoindolin-5-yl)oxy)acetamido)ethoxy)ethoxy)ethyl)bicyclo[1.1.1]pentane-1-carboxamide]	< 50%	C (“C” indicates maximum degradation < 50%)
Cc1ncsc1-c1ccc(CNC(=O)[C@@H]2C[C@@H](O)CN2C(=O)[C@@H](NC(=O)CCCCCCCCCCCCCCC(=O)NCC23CC(COc4cc(-c5ccccc5O)nnc4N)(C2)C3)C(C)(C)C)cc1 [Compound 41, N1-((3-(((3-amino-6-(2-hydroxyphenyl)pyridazin-4-yl)oxy)methyl)bicyclo[1.1.1]pentan-1-yl)methyl)-N16-((S)-1-((2S,4R)-4-hydroxy-2-((4-(4-methylthiazol-5-yl)benzyl)carbamoyl)pyrrolidin-1-yl)-3,3-dimethyl-1-oxobutan-2-yl)hexadecanediamide]	< 50%	B (“B” indicates maximum degradation ≥ 50%)

Continued, in another order:

Dmax [1]	Compound	BRM HiBit Degradation Maximum (%) (HiBit-BRM fusion protein)
< 50%	Nc1nnc(-c2ccccc2O)cc1OCC12CC(C(=O)N3CC(COc4cccc5c4C(=O)N(C4CCC(=O)NC4=O)C5=O)C3)(C1)C2 (stereo not shown) [Compound 87, 4-((1-(3-(((3-amino-6-(2-hydroxyphenyl)pyridazin-4-yl)oxy)methyl)bicyclo[1.1.1]pentane-1-carbonyl)azetidin-3-yl)methoxy)-2-(2,6-dioxopiperidin-3-yl)isoindoline-1,3-dione]	C (“C” indicates maximum degradation < 50%)
< 50%	Nc1nnc(-c2ccccc2O)cc1OCC12CC(CNC(=O)C3CCN(CCOc4ccc5c(c4)C(=O)N(C4CCC(=O)NC4=O)C5=O)CC3)(C1)C2 (stereo not shown) [Compound 15, N-((3-(((3-amino-6-(2-hydroxyphenyl)pyridazin-4-yl)oxy)methyl)bicyclo[1.1.1]pentan-1-yl)methyl)-1-(2-((2-(2,6-dioxopiperidin-3-yl)-1,3-dioxoisoindolin-5-yl)oxy)ethyl)piperidine-4-carboxamide]	C (“C” indicates maximum degradation < 50%)
< 50%	Nc1nnc(-c2ccccc2O)cc1OCC12CC(CNC(=O)CCN3CCN(c4ccc5c(c4)C(=O)N(C4CCC(=O)NC4=O)C5=O)CC3)(C1)C2 (stereo not shown) [Compound 16, N-((3-(((3-amino-6-(2-hydroxyphenyl)pyridazin-4-yl)oxy)methyl)bicyclo[1.1.1]pentan-1-yl)methyl)-3-(4-(2-(2,6-dioxopiperidin-3-yl)-1,3-dioxoisoindolin-5-yl)piperazin-1-yl) propanamide]	C (“C” indicates maximum degradation < 50%)
< 50%	Nc1nnc(-c2ccccc2O)cc1OCCC12CC(NC(=O)CCCCCCCOc3cccc4c3C(=O)N(C3CCC(=O)NC3=O)C4=O)(C1)C2 (stereo not shown) [Compound 21, N-[3-(2-[[3-amino-6-(2-hydroxyphenyl)pyridazin-4-yl]oxy]ethyl)bicyclo[1.1.1]pentan-1-yl]-8-[[2-(2,6-dioxopiperidin-3-yl)-1,3-dioxoisoindol-4-yl]oxy]octanamide]	C (“C” indicates maximum degradation < 50%)
